This is an account of results in article PMC8682760, “Specificity and sensitivity of an RNA targeting type III CRISPR complex coupled with a NucC endonuclease effector” (Nucleic Acids Research, 2021).

Several values for one entry are separate records, joined by “and”; a condition that tells them apart may be missing. Equal values may be shown once.

Data set [1] addresses T1, NucC (Vibrio metoecus, UniProt P0DUD6).
T1 construct: Codon-optimised synthetic gene in pEV5HisTEV, N-terminal His8 tag (TEV step as for VmeCmr), E. coli C43(DE3); trimeric species used
T1 sequence (P0DUD6 1-245): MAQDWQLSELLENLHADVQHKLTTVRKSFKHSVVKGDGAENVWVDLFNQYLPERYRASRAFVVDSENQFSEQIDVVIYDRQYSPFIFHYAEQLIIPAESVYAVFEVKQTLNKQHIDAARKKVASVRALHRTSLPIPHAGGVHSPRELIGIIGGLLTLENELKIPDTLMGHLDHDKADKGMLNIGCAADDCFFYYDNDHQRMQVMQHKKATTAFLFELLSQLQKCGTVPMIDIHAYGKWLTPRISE
Put plainly: fluorogenic dsDNA (FAM/Iowa Black) cleavage, plate reader. Type of data set: biochemical. Conditions: read-out: Act50.

Data set [2] concerns the molecule itself. Put plainly: SEC; HiLoad 16/60 Superdex pg 200, 20 mM Tris-HCl, 250 mM NaCl, 10% (v/v) glycerol, pH 7.5; peaks at approximately 160 ml and 180 ml. On the technique in general: Size exclusion chromatography separates by hydrodynamic size, large species first.

As for `Nc1ncnc2c1ncn2[C@@H]1O[C@@H]2COP(=O)(O)O[C@H]3[C@@H](O)[C@H](n4cnc5c(N)ncnc54)O[C@@H]3COP(=O)(O)O[C@H]3[C@@H](O)[C@H](n4cnc5c(N)ncnc54)O[C@@H]3COP(=O)(O)O[C@H]2[C@H]1O` [cA3], the EC50 in data set [1] turned out to be 0.094 ± 0.004 nM.

B1: Vibrio metoecus NucC DNA endonuclease effector (enzyme, UniProt P0DUD6 1-245, looked up)
chain: T1 sequence (P0DUD6 1-245)
notes: NucC of the Vibrio metoecus type III-B CRISPR locus; source: E. coli C43(DE3), purified (HisTrap, TEV, second HisTrap, SEC on Superdex 200); not shown: His8, N-terminal, cleaved
As usually defined, the stoichiometry N is a count of units in the complex or per binding partner. For B1, the “stoichiometry N” value in data set [2] is 6 and 3.
